Experimental data as given in patent US20240226001A1, “Contact Lenses And Other Eye-Contacting Matrices Carrying Mitochondrially-Targeted Antioxidants” (Mitotech S.A., priority 2015, published 2024).
Several values for one entry are separate records, joined by “and”; a condition that tells them apart may be missing. Equal values may be shown once. Read-outs that look alike come from different tables or passages of the source. Blank lines part the entries; values can stand above or below the compound they belong to.

Key:
[1] = Adsorption of MTCs on a matrix from PBS versus 50% ethanol, HPLC (Example 4); type: physicochemical; settings: 250 nM solution in dark glass vials; adsorption in 50% ethanol negligible
Description: It must be noted that SkQ3 differs from SkQ1 by the antioxidant moiety (A moiety in the formula I—see above), while SkB1 differs from SkQ1 by both the linker (L moiety) and targeting moiety (B moiety). So in this experiment, variations in all 3 parts of MTC molecule were successfully used.
The experiment was conducted as follows: 990 μl of phosphate buffered saline (PBS) or 50% water-ethanol solution (SkQ adsorption in 50% ethanol is negligible) was placed in dark glass chromatography vials (Waters, p/n 186000847c). 10 ul of 25 μM SkQ solution in ethanol was then added to each vial, yielding a 250 nM solution. The vials were vigorously mixed and the SkQ concentration in each vial (100 μl samples) was analyzed by HPLC using a Luna C 18 (2), Phenomenex, 250 MM '4.6 mm column with a sorbent particle size of 5 μm. The liquid phase used was acetonitrile:water (56:44), and the flow speed was 1 ml/min. at 25° C. UV detection was performed at A260.

[2] = SkQ1 content of control lenses (intact lenses kept in saline solution) (Example 3); type: physicochemical; settings: for SkQ1 conc. in control lenses: 50% acetonitrile extract
Description: (§1) The experiment was performed as follows: contact lenses were supplemented with SkQ1 as described in Example 2, then some lenses were placed on rabbit eyes and some lenses left aside in saline solution. At certain time points (see below in the table 3) contact lenses were removed from rabbits' eyes (experimental lenses) or saline solution (control lenses) and such rabbits were euthanized and their cornea were taken for SkQ1 content analysis. Then SkQ1 was extracted from the collected lenses and cornea samples using 50% acetonitrile solution and the SkQ1 amount in the extracts was determined using LCMS/MS.

[3] = SkQ1 concentration in rabbit cornea after SkQ1-supplemented contact lens (Example 3); type: in vivo; settings: rabbit; for concentration at 30 min / concentration at 1 h / concentration at 2 h: topical; for concentration at 30 min: 30 min after lens placement; for concentration at 1 h: 1 hour after lens placement; for concentration at 2 h: 2 hours after lens placement
Description: as §1

rabbit cornea [4] = assay: as above; type: in vivo; settings: for SkQ1 nM in cornea / SkQ1 ng per g of cornea / SkQ1 concentration in the cornea (extract): single samples
Description: as §1

[5] = Adsorption of SkQ1 from saline on soft disposable contact lens, retention in saline, extraction with 50% acetonitrile (Example 2); type: physicochemical
Description: Lens pre-wash: soft disposable contact lenses were thoroughly rinsed with saline solution (0.9% NaCl) and incubated in this solution overnight. Preparation of 2.5 μM SkQ1 solution: 4 mL of saline solution was placed in dark glass vials. 40 μL of 500 μM SkQ1 solution in 50% ethanol was added into each vial yielding 2.5 μM SkQ1 solution. Solution in the vial was thoroughly mixed and then incubated overnight to yield A1 series solution. Then aliquots of A1 series were collected from these vials.
During the experiment a pre-washed contact lens was placed into a glass vial with 2.5 uM SkQ1 solution and incubated at +4° C.-+8 °C for 4 days. Then the contact lenses were removed from the 2.5 μM SkQ1 solution, rinsed with saline solution and placed into fresh saline solution and incubated overnight at +4° C.-+8° C. to yield A2 series solution. Aliquots of the A2 series solution were collected from the vials where lenses were incubated in 2.5 μM SkQ1 solution.
After the above described overnight lens incubation in saline solution, lenses were placed in vials containing 500 μL of 50% acetonitrile and mixed during 1 hour at +25° C. Then aliquots of this acetonitrile solution was collected (A3 series).
The content of SkQ1 in the collected aliquots was analyzed using LCMS/MS.

rabbit cornea [6] = assay: SkQ1 concentration in rabbit cornea after instillation of eye drops (control experiment); type: in vivo; settings: eye drops containing 1.55 μg/mL of SkQ1, FIG. 2B
Description: Thus SkQ1 was efficiently transferred from the experimental lens into the eye. In the control experiment, SkQ1 was administered into the rabbit eye by instillation of eye drops containing 1.55 μg/mL of SkQ1. At certain time points, samples of rabbit cornea were taken and analyzed for SkQ1 content using LCMS/MS. […] Thus, the mode of accumulation of SkQ1 in the cornea is different when SkQ1 is administered via contact lenses (compare graphs on FIG. 2A and FIG. 2B).

rabbit eyes = assay: SkQ1 content of experimental lenses taken from rabbits eyes (Example 3); type: in vivo; settings: for SkQ1 conc. in experimental lenses: 50% acetonitrile extract; for SkQ1 conc. in experimental lenses / SkQ1 amount in experimental lenses: single samples; for Average SkQ1 amount in experimental lenses: average of 2 samples
Description: as §1

[7] = cornea (50% acetonitrile extract), single samples, read-out: SkQ1 concentration in the cornea (extract)
[8] = cornea, average of 2 samples, read-out: SkQ1 Aver. nM in cornea
[9] = cornea, single samples, read-out: SkQ1 nM in cornea
[10] = cornea, single samples, read-out: SkQ1 ng per g of cornea
[11] = A1 series: 2.5 μM SkQ1 saline solution before lens
[12] = A2 series: saline solution after lens incubation
[13] = A3 series: 50% acetonitrile extract of lens, 1 hour at +25° C.

Concentration in PBS as % of the concentration in 50% ethanol [1]: 63.8%
Compound: COc1ccc2c(CC(=O)OCCCCCCCC3=CC(=O)C(C)=C(C)C3=O)c3[n+](cc2c1OC)CCc1cc2c(cc1-3)OCO2 [SkQB1]

SkQ1 amount in control lenses ([2]; 30 min in saline): 4.611 nmoles/sample | SkQ1 conc. in control lenses ([2]; 30 min in saline): 5.690 µg/mL | SkQ1 concentration on intact control lenses left in saline over time ([2]; 30 min to 6 hours, FIG. 1): stayed stable | SkQ1 amount in control lenses ([2]; 1 hour in saline): 4.966 nmoles/sample | SkQ1 conc. in control lenses ([2]; 1 hour in saline): 6.129 µg/mL | SkQ1 amount in control lenses ([2]; 2 hours in saline): 5.107 nmoles/sample | SkQ1 conc. in control lenses ([2]; 2 hours in saline): 6.302 µg/mL | SkQ1 amount in control lenses ([2]; 6 hours in saline): 4.377 nmoles/sample | SkQ1 conc. in control lenses ([2]; 6 hours in saline): 5.052 µg/mL | concentration at 30 min [3, 7]: 0.64 ng/mL | concentration at 1 h [3, 7]: 1.56 ng/mL | concentration at 2 h [3, 7]: 1.46 ng/mL | concentration at 6 h ([3]; cornea, other: SkQ1-supplemented contact lens placed on the eye, 6 hours after lens placement, average of 2 samples, read-out: SkQ1 Aver. nM in cornea): 17.8 nM | concentration at 30 min [3, 8]: 5.59 nM | concentration at 30 min [3, 9]: 6.22 nM | concentration at 30 min [3, 10]: 3.84 ng/g | concentration at 1 h [3, 8]: 14.7 nM | concentration at 1 h [3, 9]: 15.2 nM | concentration at 1 h [3, 10]: 9.36 ng/g | concentration at 2 h [3, 8]: 13.8 nM | concentration at 2 h [3, 9]: 14.2 nM | concentration at 2 h [3, 10]: 8.76 ng/g | SkQ1 nM in cornea (rabbit cornea [4]; 30 min after lens placement): 4.96 nM | SkQ1 ng per g of cornea (rabbit cornea [4]; 30 min after lens placement): 3.06 ng per g of cornea | SkQ1 concentration in the cornea (extract) (rabbit cornea [4]; 30 min after lens placement): 0.51 ng/mL | SkQ1 nM in cornea (rabbit cornea [4]; 1 hour after lens placement): 14.30 nM | SkQ1 ng per g of cornea (rabbit cornea [4]; 1 hour after lens placement): 8.82 ng per g of cornea | SkQ1 concentration in the cornea (extract) (rabbit cornea [4]; 1 hour after lens placement): 1.47 ng/mL | SkQ1 nM in cornea (rabbit cornea [4]; 2 hours after lens placement): 13.32 nM | SkQ1 ng per g of cornea (rabbit cornea [4]; 2 hours after lens placement): 8.22 ng per g of cornea | SkQ1 concentration in the cornea (extract) (rabbit cornea [4]; 2 hours after lens placement): 1.37 ng/mL | Concentration of SkQ1 in the rabbits' eye cornea over time (rabbit cornea [4]; administered via contact lens, FIG. 2A): gradually increased | Calculated total SkQ1 amount in the vial, M ± SE (n = 9) [5, 11]: 3.69 µg and 3.69 ± 0.11 µg | SkQ1 concentration found, M ± SE (n = 9) [5, 11]: 0.97 ± 0.03 µg/mL | Calculated total SkQ1 amount in the vial, M ± SE (n = 9) [5, 12]: 0.19 µg and 0.19 ± 0.07 µg | SkQ1 concentration found, M ± SE (n = 9) [5, 12]: 0.1 ± 0.04 µg/mL | Calculated total SkQ1 amount in the vial (=total SkQ1 amount extracted from the lens), M ± SE (n = 9) [5, 13]: 2.5 µg and 2.5 ± 0.08 µg | SkQ1 concentration found, M ± SE (n = 9) [5, 13]: 9.9 ± 0.33 µg/mL | Time of maximum SkQ1 concentration in cornea (rabbit cornea [6]): 30 min | Concentration in PBS as % of the concentration in 50% ethanol [1]: 51.7% | SkQ1 conc. in experimental lenses (rabbit eyes; 30 min on rabbit eye): 2.868 µg/mL and 3.006 µg/mL | Average SkQ1 amount in experimental lenses (rabbit eyes; 30 min on rabbit eye): 2.38 nmoles/sample | Amount of SkQ1 in the contact lens placed on the eye over time (rabbit eyes; 30 min to 6 hours, FIG. 1): decreased with time | SkQ1 conc. in experimental lenses (rabbit eyes; 1 hour on rabbit eye): 3.339 µg/mL and 3.200 µg/mL | Average SkQ1 amount in experimental lenses (rabbit eyes; 1 hour on rabbit eye): 2.65 nmoles/sample | SkQ1 conc. in experimental lenses (rabbit eyes; 2 hours on rabbit eye): 2.77 µg/mL and 2.854 µg/mL | Average SkQ1 amount in experimental lenses (rabbit eyes; 2 hours on rabbit eye): 2.279 nmoles/sample | SkQ1 conc. in experimental lenses (rabbit eyes; 6 hours on rabbit eye): 1.448 µg/mL and 1.229 µg/mL | Average SkQ1 amount in experimental lenses (rabbit eyes; 6 hours on rabbit eye): 1.114 nmoles/sample
Compound: CC1=C(C)C(=O)C(CCCCCCCCCC[P+](c2ccccc2)(c2ccccc2)c2ccccc2)=CC1=O [SkQ1]
SkQ1 amount in experimental lenses (rabbit eyes; 30 min on rabbit eye): 2.324 nmoles/sample and 2.436 nmoles/sample | SkQ1 amount in experimental lenses (rabbit eyes; 1 hour on rabbit eye): 2.706 nmoles/sample and 2.593 nmoles/sample | SkQ1 amount in experimental lenses (rabbit eyes; 2 hours on rabbit eye): 2.244 nmoles/sample and 2.313 nmoles/sample | SkQ1 amount in experimental lenses (rabbit eyes; 6 hours on rabbit eye): 1.174 nmoles/sample and 1.053 nmoles/sample

Concentration in PBS as % of the concentration in 50% ethanol [1]: 29.6%
Compound: CC1=C(C)C(=O)C(CCCCCCCCCC[P+](c2ccccc2)(c2ccccc2)c2ccccc2)=C(C)C1=O [SkQ3]
